# According to publication PMC6259458, “Investigating the Spectrum of Biological Activity of Ring-Substituted Salicylanilides and Carbamoylphenylcarbamates” (Molecules, 2010):
# Like-named read-outs stand apart in the source and are kept apart here.
# How the values were obtained:
# [1] = design: method as in PMID 1151976; conditions: parameter of the substituents in the anilide part; cited from earlier work
# [2] = Lipophilicity determination by RP-HPLC (capacity factor k / log k); assay type: physicochemical; conditions: C18 column, MeOH 70% / H2O 30%, isocratic
# Experimental: Hydrophobicities (log P/Clog P) of the compounds 1-5 and 8-14 were calculated using two commercially available programs (ChemDraw Ultra 10.0 and ACD/LogP) and also measured by means of the RP-HPLC determination of capacity factors k with subsequent calculation of log k. The procedure was performed under isocratic conditions with methanol as an organic modifier in the mobile phase using an end-capped non-polar C18 stationary RP column. The results are shown in Table 1 and illustrated in Figure 1.
# A Waters Alliance 2695 XE HPLC separation module and a Waters Photodiode Array Detector 2996 (Waters Corp., Milford, MA, USA) were used. A Symmetry® C18 5 μm, 4.6 × 250 mm, Part No. WAT054275 (Waters Corp., Milford, MA, USA) chromatographic column was used. The HPLC separation process was monitored by Empower™ 2 Chromatography Data Software, Waters 2009 (Waters Corp., Milford, MA, USA). A mixture of MeOH p.a. (70%) and H2O-HPLC – Mili-Q Grade (30%) was used as a mobile phase. The total flow of the column was 1.0 mL/min, injection volume 30 μL, column temperature 30 °C and sample temperature 10°C. The detection wavelength of 210 nm was chosen. The KI methanolic solution was used for the dead time (tD) determination. Retention times (tR) were measured in minutes. The capacity factors k were calculated using the Empower™ 2 Chromatography Data Software according to formula k = (tR - tD)/tD, where tR is the retention time of the solute, whereas tD denotes the dead time obtained using an unretained analyte. Log k, calculated from the capacity factor k, is used as the lipophilicity index converted to log P scale.
# [3] = Solubility in the PET testing medium (observation); assay type: physicochemical; conditions: precipitation during the experiments
# From the text: The activity of the rest of the studied compounds was moderate or low relative to the standard. PET inhibition by 8 or 9 could not be determined due to precipitation of the compounds during the experiments. With respect to these small but closed specifically substituted groups of compounds some structure-activity relationships (SAR) can be proposed.
# [4] = system: methicilin resistant Staphylococcus aureus H 5996/08; assay: In vitro anti-bacterial susceptibility, Mueller-Hinton broth; assay type: cell-based; conditions: MRSA, methicillin-resistant Staphylococcus aureus, MIC = IC90 value, NA = no significant activity
# [5] = system: Staphylococcus epidermidis H 6966/08; assay: as above; assay type: cell-based; conditions: MIC = IC90 value, NA = no significant activity
# [6] = system: Trichophyton mentagrophytes 445; assay: In vitro anti-fungal susceptibility, broth microdilution; assay type: cell-based; conditions: MIC = IC50 value, NA = no significant activity
# Experimental: (§1) The broth microdilution test was used for the assessment of in vitro anti-fungal activity of the synthesized compounds against Absidia corymbifera 272 (AC) and Trichophyton mentagrophytes 445 (TM). Fluconazole (FLU) was used as the standard since it is a clinically used anti-mycotic drug. The procedure was performed with a two-fold dilution of the compounds in […]., Prague, Czech Republic) buffered to pH 7.0 with 0.165 mol of 3-morpholino-propane-1-sulfonic acid (MOPS, Sigma, Germany). […] Drug-free controls were included. […] The values of the minimum inhibitory concentration (MICs) were determined after 24 and 48 h of static incubation at 35 °C. For T. mentagrophytes, the final MICs were determined after 72 and 120 h of incubation.
# Absidia corymbifera 272 = assay: as above; assay type: cell-based
# Experimental: as §1
# [7] = system: photosynthetic electron transport (PET) in spinach chloroplasts; assay: Inhibition of photosynthetic electron transport (PET) in spinach chloroplasts, DCPIP photoreduction; assay type: biochemical, Spinacia oleracea L.; conditions: for IC50: DCPIP photoreduction, pH 7.2
# Experimental: Chloroplasts were prepared from spinach (Spinacia oleracea L.) according to Masarovicova and Kralova. The inhibition of photosynthetic electron transport (PET) in spinach chloroplasts was determined spectrophotometrically (Genesys 6, Thermo Scientific, USA), using an artificial electron acceptor 2,6-dichlorophenol-indophenol (DCIPP) according to Kralova et al., and the rate of photosynthetic electron transport was monitored as a photoreduction of DCPIP. The measurements were carried out in phosphate buffer (0.02 mol/L, pH 7.2) containing sucrose (0.4 mol/L), MgCl2 (0.005 mol/L) and NaCl (0.015 mol/L). The chlorophyll content was 30 mg/L in these experiments and the samples were irradiated (~100 W/m^2) from 10 cm distance with a halogen lamp (250 W) using a 4 cm water filter to prevent warming of the samples (suspension temperature 22 °C). The studied compounds were dissolved in DMSO due to their limited water solubility.
# [8] = system: human SK-N-MC neuroepithelioma cell line; assay: In vitro anti-proliferative activity, MTT assay; assay type: cell-based; conditions: SK-N-MC cells, 72 h
# Experimental: Therefore, the anti-proliferative activity of compounds 1-5 was examined against the human SK-N-MC neuroepithelioma cell line to determine if there were any undesired cytotoxic side-effects. The SK-N-MC cell line was chosen as the effect of iron chelators on the proliferation of these cells has been extensively examined. The anti-proliferative activity of the evaluated compounds was assessed in comparison to the well-known clinically used iron chelator, desferrioxamine (DFO), and the highly cytotoxic chelator, di-2-pyridylketone 4,4-dimethyl-3-thiosemicarbazone (Dp44mT).
# The human SK-N-MC neuroepithelioma cell type was obtained from the American Type Culture Collection (Manassas, VA, USA) and was cultured in minimum essential medium (MEM; Gibco, Melbourne, Australia) containing 10% (v/v) FBS, 1.0 mM sodium pyruvate (Gibco), 1% (v/v) non-essential amino acids (Gibco), 2 mM L-glutamine (Gibco), 100 U/mL penicillin (Gibco), streptomycin (Gibco) and 0.28 μg/mL fungizone (Squibb Pharmaceuticals, Montreal, Canada). […]
# The effect of the compounds on cellular proliferation was determined by the MTT [1-(4,5-dimethylthiazol-2-yl)-2,5-diphenyl tetrazolium] assay using standard techniques. […] After solubilization of the cells with 100 μL of 10% SDS-50% isobutanol in 0.01 M HCl, the plates were read at 570 nm using a scanning multi-well spectrophotometer.
# [9] = system: photosynthetic apparatus of spinach chloroplasts (PS 2 / PS 1); assay: Site of action: restoration of PET by artificial electron donors (DPC, DCPIPH2); assay type: biochemical, Spinacia oleracea L.
# Experimental: To further determine the site of action of the studied compounds, experiments with 1,5-diphenylcarbazide (DPC) were performed. DPC is an artificial electron donor for PS 2 with a known site of action in the Z^•/D^• intermediate. The site of action of the artificial electron acceptor 2,6-dichlorophenol-indophenol (DCPIP) used for monitoring the Hill reaction is plastoquinone on the acceptor side of PS 2 [51]. Thus, if the part of the photosynthetic electron transport chain between manganese cluster and Z/D is inhibited, then DPC will restore PET through PS 2.
# [10] = H6966/08, 24 h, read-out: MIC SE 24 h
# [11] = H6966/08, 48 h, read-out: MIC SE 48 h
# [12] = Lichtheimia corymbifera, 272, 24 h, read-out: MIC AC 24 h
# [13] = Lichtheimia corymbifera, 272, 48 h, read-out: MIC AC 48 h
smiles,measurement,setting,value
"O=C(NCc1ccccc1Cl)c1ccc([N+](=O)[O-])cc1 [Compound 9, N-(2-Chlorobenzyl)-4-nitrobenzamide]","MR (bulk parameter, reflecting bulkiness)",[1],4.7
same,σ (Hammett's parameter),[1],0.67
same,log k,[2],0.6966
same,solubility in the testing medium,[3],low solubility
"CC1(C)S[C@@H]2[C@H](NC(=O)Cc3ccccc3)C(=O)N2[C@H]1C(=O)O [PEN, Penicillin G, reference compound]",MIC,"[4]; 24 h, read-out: MIC MRSA 24 h",125 µM
same,MIC,"[4]; 48 h, read-out: MIC MRSA 48 h",125 µM
same,MIC,[5]; [10],31.6 µM
same,MIC,[5]; [11],125 µM
"OC(Cn1cncn1)(Cn1cncn1)c1ccc(F)cc1F [FLU, Fluconazole, reference compound]",MIC,"[6]; 72 h, read-out: MIC TM 72 h",1.95 µM
same,MIC,"[6]; 120 h, read-out: MIC TM 120 h",3.91 µM
same,MIC,Absidia corymbifera 272; [12],> 125 µM
same,MIC,Absidia corymbifera 272; [13],> 125 µM
"Nc1ccc(C(=O)NCc2ccccc2Cl)cc1 [Compound 11, 4-Amino-N-(2-chlorobenzyl)benzamide]",PET-inhibiting / biological activity in words,[7],very low activity
same,IC50,[7],398 µM
same,"MR (bulk parameter, reflecting bulkiness)",[1],4.7
same,σ (Hammett's parameter),[1],0.67
same,log k,[2],0.5886
"CCOc1ccccc1NC(=O)c1ccccc1O [Compound 4, N-(2-Ethoxyphenyl)-2-hydroxybenzamide]",IC50,[7],15 µM
same,MIC,"[6]; 72 h, read-out: MIC TM 72 h",62.5 µM
same,MIC,"[6]; 120 h, read-out: MIC TM 120 h",62.5 µM
same,MIC,Absidia corymbifera 272; [12],62.5 µM
same,MIC,Absidia corymbifera 272; [13],125 µM
same,"MR (bulk parameter, reflecting bulkiness)",[1],11.3
same,σ (Hammett's parameter),[1],0.02
same,log k,[2],0.7515
same,MIC,"[4]; 24 h, read-out: MIC MRSA 24 h",125 µM
same,MIC,"[4]; 48 h, read-out: MIC MRSA 48 h",125 µM
same,MIC,[5]; [10],125 µM
same,MIC,[5]; [11],125 µM
"Cc1cccc(C)c1NC(=O)c1ccccc1O [Compound 2, N-(2,6-Dimethylphenyl)-2-hydroxybenzamide]",IC50,[7],331 µM
same,MIC,"[6]; 72 h, read-out: MIC TM 72 h",250 µM
same,MIC,"[6]; 120 h, read-out: MIC TM 120 h",500 µM
same,MIC,Absidia corymbifera 272; [12],> 250 µM
same,MIC,Absidia corymbifera 272; [13],> 250 µM
same,"MR (bulk parameter, reflecting bulkiness)",[1],9.4
same,σ (Hammett's parameter),[1],0.20
same,log k,[2],0.6807
same,MIC,"[4]; 24 h, read-out: MIC MRSA 24 h",> 500 µM
same,MIC,"[4]; 48 h, read-out: MIC MRSA 48 h",> 500 µM
same,MIC,[5]; [10],> 500 µM
same,MIC,[5]; [11],> 500 µM
"CN(C)C(=S)NN=C(c1ccccn1)c1ccccn1 [Dp44mT, di-2-pyridylketone 4,4-dimethyl-3-thiosemicarbazone]",IC50,[8],0.01 ± 0.01 µM
"CC(=O)N(O)CCCCCNC(=O)CCC(=O)N(O)CCCCCNC(=O)CCC(=O)N(O)CCCCCN [DFO, desferrioxamine]",IC50,[8]; Homo sapiens,17.1 ± 3.77 µM
"O=C(Nc1cc(C(F)(F)F)ccc1Cl)c1ccc([N+](=O)[O-])cc1 [Compound 10, N-[2-Chloro-5-(trifluoromethyl)phenyl]-4-nitrobenzamide]",PET-inhibiting / biological activity in words,[7],medium PET inhibiting activity
same,IC50,[7],50.1 µM
same,"MR (bulk parameter, reflecting bulkiness)",[1],8.7
same,σ (Hammett's parameter),[1],1.10
same,log k,[2],0.8269
"O=C(Nc1ccccc1Cl)c1ccc([N+](=O)[O-])cc1 [Compound 8, N-(2-Chlorophenyl)-4-nitrobenzamide]","MR (bulk parameter, reflecting bulkiness)",[1],4.7
same,σ (Hammett's parameter),[1],0.67
same,log k,[2],0.6782
same,solubility in the testing medium,[3],low solubility
"COC(=O)Nc1ccc(C(=O)NCc2ccccc2Cl)cc1 [Compound 13, Methyl 4-(2-chlorobenzylcarbamoyl)phenylcarbamate]",IC50,[7],1.6 µM
same,"MR (bulk parameter, reflecting bulkiness)",[1],4.7
same,σ (Hammett's parameter),[1],0.67
same,log k,[2],0.6345
same,restoration of PET through PS 1 after addition of DCPIPH2,[9]; DCPIPH2 40 μmol/L added to treated chloroplasts,completely restored
same,restoration of PET through PS 2 after addition of DPC,[9]; DPC 2 mmol/L added to treated chloroplasts,not restored
"Nc1ccc(C(=O)Nc2cc(C(F)(F)F)ccc2Cl)cc1 [Compound 12, 4-Amino-N-[2-chloro-5-(trifluoromethyl)phenyl]benzamide]",PET-inhibiting / biological activity in words,[7],did not show any biological activity in any of the assays
same,"MR (bulk parameter, reflecting bulkiness)",[1],8.7
same,σ (Hammett's parameter),[1],1.10
"CCCOc1ccccc1NC(=O)c1ccccc1O [Compound 5, 2-Hydroxy-N-(2-propoxyphenyl)benzamide]",IC50,[7],44.8 µM
same,MIC,"[6]; 72 h, read-out: MIC TM 72 h",31.2 µM
same,MIC,"[6]; 120 h, read-out: MIC TM 120 h",31.2 µM
same,MIC,Absidia corymbifera 272; [12],31.2 µM
same,MIC,Absidia corymbifera 272; [13],31.2 µM
same,"MR (bulk parameter, reflecting bulkiness)",[1],15.9
same,log k,[2],0.8401
same,MIC,"[4]; 24 h, read-out: MIC MRSA 24 h",31.2 µM
same,MIC,"[4]; 48 h, read-out: MIC MRSA 48 h",31.2 µM
same,MIC,[5]; [10],31.2 µM
same,MIC,[5]; [11],31.2 µM
"COC(=O)Nc1ccc(C(=O)Nc2cc(C(F)(F)F)ccc2Cl)cc1 [Compound 14, Methyl 4-[2-chloro-5-(trifluoromethyl)phenylcarbamoyl]phenylcarbamate]",IC50,[7],1 µM
same,"MR (bulk parameter, reflecting bulkiness)",[1],8.7
same,σ (Hammett's parameter),[1],1.10
same,log k,[2],0.7782
